Assay [1] deals with T1, Fatty acid synthase (Homo sapiens, UniProt P49327). The assay can be described thus: FAS thioesterase domain inhibitors, dose response, biochemical, kinetic fluorescence intensity (AID 624326).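 Further: rate of fluorescence rise from hydrolysis of a fluorogenic O-methyl fluorescein ester substrate.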 The format is functional.
Assay [2] addresses T1, Fatty acid synthase. The assay can be described thus: FAS thioesterase domain inhibitors, dose response, biochemical, endpoint fluorescence intensity, uHTS hits (AID 624327).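 Further: fluorescence from hydrolysis of an O-methyl fluorescein acyl ester substrate by the enzyme.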 It counts as functional.
The target of a further assay is T2, Leucine aminopeptidase (Plasmodium falciparum 3D7, UniProt Q8IL11).
T2 sequence (Q8IL11 whole entry): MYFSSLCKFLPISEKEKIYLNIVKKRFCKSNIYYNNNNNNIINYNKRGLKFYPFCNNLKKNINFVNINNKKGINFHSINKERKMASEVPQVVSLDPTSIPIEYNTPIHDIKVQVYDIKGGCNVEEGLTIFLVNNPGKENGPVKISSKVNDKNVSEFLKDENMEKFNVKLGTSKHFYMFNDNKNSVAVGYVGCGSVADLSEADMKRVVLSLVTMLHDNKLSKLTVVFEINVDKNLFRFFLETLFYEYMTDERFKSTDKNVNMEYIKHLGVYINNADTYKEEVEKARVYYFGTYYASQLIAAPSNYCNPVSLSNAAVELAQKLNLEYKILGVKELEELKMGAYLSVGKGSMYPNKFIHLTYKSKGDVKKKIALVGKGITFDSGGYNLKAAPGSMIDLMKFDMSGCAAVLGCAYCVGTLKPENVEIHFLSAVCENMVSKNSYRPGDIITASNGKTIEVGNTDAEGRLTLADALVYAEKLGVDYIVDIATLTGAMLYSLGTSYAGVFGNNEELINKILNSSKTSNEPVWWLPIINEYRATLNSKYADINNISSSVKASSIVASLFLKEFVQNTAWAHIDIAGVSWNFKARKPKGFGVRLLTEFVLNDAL
The assay can be described thus: P. falciparum M17LAP inhibitors, primary screen, biochemical, fluorogenic H-Leu-NHMec substrate, 1536-well (AID 1619). The format is functional.

Assay [3] is described as follows: NIH-3T3 fibroblast cytotoxicity, dose response, cytotoxicity control, cell-based, fluorescence, Alamar Blue, secondary assay (AID 2327).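 Further: NIH-3T3 mouse fibroblasts cultured with fluconazole at 8 µg/mL.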 It counts as functional.
A short description of assay [4]: C. albicans growth with fluconazole, confirmation, fluorescence, retest (AID 2467). It counts as functional, cell-based.
The nature of assay [5]: Luminescence Cell-Based Dose Response HTS to Identify Activators of Luciferase Translation or Activity in H4 […] Cells. [Related pubchem assays: 1829 (Project Summary), 1814 (Primary HTS)]. The format is functional.
Assay [6] can be described thus: Luminescence Cell-Based Dose Confirmation HTS to Identify Activators of 5'UTR Stem-Loop Driven Alpha-Synuclein mRNA Translation in H4 Neuroglioblastoma Cells. [Related pubchem assays: 1829 (Project Summary), 1814 (Primary HTS)]. It counts as functional.
The subject of another assay is H4. Nature of the assay: Luminescence Cell-Based Dose Response HTS to Identify Activators of 5'UTR Stem-Loop Driven Prion Protein mRNA Translation in H4 Neuroglioblastoma Cells. [Related pubchem assays: 1829 (Project Summary), 1814 (Primary HTS)]. The format is functional. To be noted: Homo sapiens.
Assay [7] deals with Glucose-6-phosphate 1-dehydrogenase (Homo sapiens, UniProt P11413). Nature of the assay: human G6PD enzyme inhibitors, dose response, selectivity assay for P. falciparum G6PD inhibitor project, biochemical, fluorescence (AID 504792). It counts as functional.
A further assay addresses T3, Protein skinhead-1 (Caenorhabditis elegans, UniProt P34707).
T3 sequence (P34707 whole entry): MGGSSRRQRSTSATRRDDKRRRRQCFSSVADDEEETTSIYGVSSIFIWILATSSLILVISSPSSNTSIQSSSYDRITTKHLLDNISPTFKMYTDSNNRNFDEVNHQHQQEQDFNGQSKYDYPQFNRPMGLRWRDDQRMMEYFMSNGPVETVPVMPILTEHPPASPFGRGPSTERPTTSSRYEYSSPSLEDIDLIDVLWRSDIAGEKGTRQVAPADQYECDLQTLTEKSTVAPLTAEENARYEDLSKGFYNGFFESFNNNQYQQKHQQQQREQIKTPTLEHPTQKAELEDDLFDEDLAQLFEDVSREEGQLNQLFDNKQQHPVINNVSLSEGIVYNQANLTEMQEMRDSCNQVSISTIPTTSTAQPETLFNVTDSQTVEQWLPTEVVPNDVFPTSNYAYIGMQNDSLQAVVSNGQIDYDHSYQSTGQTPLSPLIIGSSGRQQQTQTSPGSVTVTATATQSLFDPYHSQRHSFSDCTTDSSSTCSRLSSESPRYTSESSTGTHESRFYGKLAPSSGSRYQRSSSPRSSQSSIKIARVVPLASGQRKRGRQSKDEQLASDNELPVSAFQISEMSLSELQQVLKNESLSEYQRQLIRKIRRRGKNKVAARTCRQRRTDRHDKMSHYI
It counts as functional.

In assay [8] the target is T4, Sentrin-specific protease 8 (Homo sapiens, UniProt Q96LD8).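 Further: luminescence read-out of SENP8 inhibition, dose-response confirmation following an ultra-high-throughput screen.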
T4 sequence (Q96LD8 whole entry): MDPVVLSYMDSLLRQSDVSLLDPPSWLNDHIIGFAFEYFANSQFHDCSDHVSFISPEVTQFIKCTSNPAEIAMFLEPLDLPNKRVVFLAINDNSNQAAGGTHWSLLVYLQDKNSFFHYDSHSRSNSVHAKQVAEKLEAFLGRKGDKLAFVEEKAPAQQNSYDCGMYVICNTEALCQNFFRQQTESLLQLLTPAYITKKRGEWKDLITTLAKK
The format is functional.

Assay [9] addresses T5, Sentrin-specific protease 6 (Homo sapiens, UniProt Q9GZR1).
T5 sequence (Q9GZR1 whole entry): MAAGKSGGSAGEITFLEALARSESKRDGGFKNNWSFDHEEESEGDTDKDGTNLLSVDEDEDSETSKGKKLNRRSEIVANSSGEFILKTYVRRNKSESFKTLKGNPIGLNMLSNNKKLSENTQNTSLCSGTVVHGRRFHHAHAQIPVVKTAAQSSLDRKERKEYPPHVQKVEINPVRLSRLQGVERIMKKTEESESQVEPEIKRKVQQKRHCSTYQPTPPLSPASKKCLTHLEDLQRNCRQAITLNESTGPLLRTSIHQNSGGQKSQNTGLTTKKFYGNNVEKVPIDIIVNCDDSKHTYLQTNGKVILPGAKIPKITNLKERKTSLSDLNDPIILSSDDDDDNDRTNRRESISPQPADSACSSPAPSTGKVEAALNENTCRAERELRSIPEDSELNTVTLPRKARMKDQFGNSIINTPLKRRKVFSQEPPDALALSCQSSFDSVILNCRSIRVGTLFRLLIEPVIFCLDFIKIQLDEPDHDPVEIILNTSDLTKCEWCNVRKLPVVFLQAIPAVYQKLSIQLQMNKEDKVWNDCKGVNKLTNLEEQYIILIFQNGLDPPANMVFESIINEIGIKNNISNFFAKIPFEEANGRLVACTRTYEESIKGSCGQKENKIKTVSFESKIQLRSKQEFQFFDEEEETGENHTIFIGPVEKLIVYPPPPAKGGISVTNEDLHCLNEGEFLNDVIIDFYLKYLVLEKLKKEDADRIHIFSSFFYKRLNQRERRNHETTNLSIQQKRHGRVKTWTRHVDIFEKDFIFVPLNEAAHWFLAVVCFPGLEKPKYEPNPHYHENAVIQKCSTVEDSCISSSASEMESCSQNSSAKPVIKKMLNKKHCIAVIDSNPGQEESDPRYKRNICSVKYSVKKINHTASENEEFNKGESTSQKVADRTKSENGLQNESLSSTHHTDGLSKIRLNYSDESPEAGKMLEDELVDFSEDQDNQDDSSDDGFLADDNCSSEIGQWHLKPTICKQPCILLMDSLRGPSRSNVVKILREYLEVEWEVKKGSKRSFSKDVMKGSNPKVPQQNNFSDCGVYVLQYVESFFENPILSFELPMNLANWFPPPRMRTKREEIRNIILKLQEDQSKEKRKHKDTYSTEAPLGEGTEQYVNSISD
The format is functional.

In a further assay the target is T6, Caspase-3 (Homo sapiens, UniProt P42574).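 Further: Dose-response selectivity test against caspase-3 for candidate inhibitors of sentrin-specific proteases (SENPs).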
T6 sequence (P42574 whole entry): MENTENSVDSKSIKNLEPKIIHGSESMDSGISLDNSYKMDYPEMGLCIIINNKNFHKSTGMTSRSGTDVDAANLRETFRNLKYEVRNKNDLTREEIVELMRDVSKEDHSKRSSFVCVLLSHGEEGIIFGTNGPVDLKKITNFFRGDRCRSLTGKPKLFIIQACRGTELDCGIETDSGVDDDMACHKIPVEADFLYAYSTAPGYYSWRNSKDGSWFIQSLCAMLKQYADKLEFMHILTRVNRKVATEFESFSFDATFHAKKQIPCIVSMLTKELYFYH
It counts as functional.

Assay [10] addresses T7, Sentrin-specific protease 7 (Homo sapiens, UniProt Q9BQF6).
T7 sequence (Q9BQF6 whole entry): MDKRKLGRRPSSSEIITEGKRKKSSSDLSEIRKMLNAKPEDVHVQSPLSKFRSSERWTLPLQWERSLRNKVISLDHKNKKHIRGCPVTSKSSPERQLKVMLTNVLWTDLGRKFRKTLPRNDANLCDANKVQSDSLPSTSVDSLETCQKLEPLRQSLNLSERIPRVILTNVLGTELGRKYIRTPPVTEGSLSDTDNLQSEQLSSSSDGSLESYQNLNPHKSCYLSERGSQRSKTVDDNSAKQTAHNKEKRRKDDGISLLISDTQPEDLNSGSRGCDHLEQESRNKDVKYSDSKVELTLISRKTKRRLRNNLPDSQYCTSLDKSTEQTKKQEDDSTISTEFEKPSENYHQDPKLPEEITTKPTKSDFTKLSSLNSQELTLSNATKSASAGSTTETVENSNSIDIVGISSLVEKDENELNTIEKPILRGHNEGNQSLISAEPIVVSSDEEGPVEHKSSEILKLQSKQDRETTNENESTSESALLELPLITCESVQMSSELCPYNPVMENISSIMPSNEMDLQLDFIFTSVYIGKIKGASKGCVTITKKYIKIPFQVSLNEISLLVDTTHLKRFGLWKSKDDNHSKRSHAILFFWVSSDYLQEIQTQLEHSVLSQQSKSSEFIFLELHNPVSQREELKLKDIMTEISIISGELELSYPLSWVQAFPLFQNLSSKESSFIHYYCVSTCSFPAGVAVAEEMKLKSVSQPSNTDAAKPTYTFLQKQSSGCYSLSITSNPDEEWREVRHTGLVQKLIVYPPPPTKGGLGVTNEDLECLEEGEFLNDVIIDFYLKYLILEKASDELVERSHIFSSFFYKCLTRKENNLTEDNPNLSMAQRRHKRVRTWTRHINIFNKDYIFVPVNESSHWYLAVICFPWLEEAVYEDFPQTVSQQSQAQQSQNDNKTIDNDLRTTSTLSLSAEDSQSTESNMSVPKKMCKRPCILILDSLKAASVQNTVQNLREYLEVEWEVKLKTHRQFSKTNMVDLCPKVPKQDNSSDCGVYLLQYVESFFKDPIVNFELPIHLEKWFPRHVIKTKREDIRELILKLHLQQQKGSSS
The format is functional.

Assay [11] can be described thus: Shn3 3'UTR reporter inhibitors, dose response, cell-based, Clone20 osteoblasts, firefly luciferase, cherry-picked (AID 624132).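 Further: firefly luciferase luminescence from reporter carrying the Shn3 3'UTR in osteoblasts.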 The format is functional.
The nature of assay [12]: control 3'UTR Renilla luciferase suppression, dose response, counter-screen for Shn3 inhibitor project, cell-based, Clone20-Shn3RL, cherry-picked (AID 624133). It counts as functional. On the technique in general: The purpose of a counterscreen is to sort out artefacts and off-target activity.

Activity calls are given as the source filed them.

T1 sequence (P49327 whole entry, the tested form may be a part): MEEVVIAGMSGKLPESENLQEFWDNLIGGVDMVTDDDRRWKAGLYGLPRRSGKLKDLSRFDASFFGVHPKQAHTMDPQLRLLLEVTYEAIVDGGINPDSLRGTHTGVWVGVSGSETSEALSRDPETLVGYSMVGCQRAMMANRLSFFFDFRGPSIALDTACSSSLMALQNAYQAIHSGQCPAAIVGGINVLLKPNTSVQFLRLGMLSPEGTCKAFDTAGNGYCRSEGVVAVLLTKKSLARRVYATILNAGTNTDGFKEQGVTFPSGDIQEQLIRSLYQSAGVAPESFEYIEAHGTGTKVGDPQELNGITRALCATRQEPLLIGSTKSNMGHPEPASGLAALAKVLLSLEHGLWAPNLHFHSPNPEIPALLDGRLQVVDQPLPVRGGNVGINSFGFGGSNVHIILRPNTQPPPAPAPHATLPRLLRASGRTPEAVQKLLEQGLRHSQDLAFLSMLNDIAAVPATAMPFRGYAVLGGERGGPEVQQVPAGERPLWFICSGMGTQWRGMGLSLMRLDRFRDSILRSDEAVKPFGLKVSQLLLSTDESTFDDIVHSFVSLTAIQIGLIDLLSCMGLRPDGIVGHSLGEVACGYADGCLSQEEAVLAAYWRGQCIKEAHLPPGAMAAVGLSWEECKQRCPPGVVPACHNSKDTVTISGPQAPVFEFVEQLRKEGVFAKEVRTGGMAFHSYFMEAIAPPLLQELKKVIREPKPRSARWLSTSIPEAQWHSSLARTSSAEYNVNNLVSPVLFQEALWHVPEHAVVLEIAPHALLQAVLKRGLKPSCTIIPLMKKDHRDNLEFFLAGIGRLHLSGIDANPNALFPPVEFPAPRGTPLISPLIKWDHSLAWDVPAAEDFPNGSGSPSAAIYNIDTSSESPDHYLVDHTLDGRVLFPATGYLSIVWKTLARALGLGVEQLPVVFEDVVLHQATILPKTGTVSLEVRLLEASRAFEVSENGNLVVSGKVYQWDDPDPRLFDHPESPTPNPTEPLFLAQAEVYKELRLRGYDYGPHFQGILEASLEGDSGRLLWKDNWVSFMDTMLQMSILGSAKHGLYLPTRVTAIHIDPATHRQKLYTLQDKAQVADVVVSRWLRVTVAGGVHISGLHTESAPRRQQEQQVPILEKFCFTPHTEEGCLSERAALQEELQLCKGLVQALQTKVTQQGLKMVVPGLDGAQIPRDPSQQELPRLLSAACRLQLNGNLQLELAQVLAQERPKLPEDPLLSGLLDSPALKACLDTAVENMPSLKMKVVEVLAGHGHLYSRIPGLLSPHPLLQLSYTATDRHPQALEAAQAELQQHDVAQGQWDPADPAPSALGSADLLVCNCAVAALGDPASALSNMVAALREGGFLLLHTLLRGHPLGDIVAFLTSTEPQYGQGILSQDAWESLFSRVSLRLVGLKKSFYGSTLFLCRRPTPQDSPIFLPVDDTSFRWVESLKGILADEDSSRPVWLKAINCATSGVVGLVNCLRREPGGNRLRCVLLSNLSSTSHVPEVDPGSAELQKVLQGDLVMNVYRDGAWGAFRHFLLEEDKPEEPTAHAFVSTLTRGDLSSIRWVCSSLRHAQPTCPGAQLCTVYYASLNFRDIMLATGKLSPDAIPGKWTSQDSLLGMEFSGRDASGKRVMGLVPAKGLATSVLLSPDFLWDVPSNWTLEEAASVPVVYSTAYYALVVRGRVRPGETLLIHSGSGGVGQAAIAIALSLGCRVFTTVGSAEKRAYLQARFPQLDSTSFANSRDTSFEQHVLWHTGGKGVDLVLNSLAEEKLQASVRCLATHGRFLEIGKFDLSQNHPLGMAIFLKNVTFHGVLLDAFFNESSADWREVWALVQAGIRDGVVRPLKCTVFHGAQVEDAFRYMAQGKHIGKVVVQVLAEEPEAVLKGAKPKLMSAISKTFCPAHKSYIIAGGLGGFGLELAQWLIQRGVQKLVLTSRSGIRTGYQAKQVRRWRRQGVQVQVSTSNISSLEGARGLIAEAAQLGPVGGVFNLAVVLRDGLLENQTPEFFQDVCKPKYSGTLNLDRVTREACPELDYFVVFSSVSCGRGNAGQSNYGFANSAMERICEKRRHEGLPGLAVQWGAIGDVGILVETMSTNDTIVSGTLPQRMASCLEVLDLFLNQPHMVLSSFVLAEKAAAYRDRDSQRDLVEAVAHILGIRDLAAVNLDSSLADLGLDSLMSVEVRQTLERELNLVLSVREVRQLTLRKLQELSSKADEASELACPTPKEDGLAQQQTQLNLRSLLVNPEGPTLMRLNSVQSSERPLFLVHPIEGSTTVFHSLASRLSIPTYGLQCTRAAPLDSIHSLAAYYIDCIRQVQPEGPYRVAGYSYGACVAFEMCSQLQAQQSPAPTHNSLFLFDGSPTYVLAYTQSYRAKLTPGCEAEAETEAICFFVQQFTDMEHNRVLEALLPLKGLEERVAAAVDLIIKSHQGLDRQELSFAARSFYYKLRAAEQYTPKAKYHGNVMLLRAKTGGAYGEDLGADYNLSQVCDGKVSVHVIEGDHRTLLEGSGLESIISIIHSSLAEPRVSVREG
Glucose-6-phosphate 1-dehydrogenase, sequence (P11413 whole entry): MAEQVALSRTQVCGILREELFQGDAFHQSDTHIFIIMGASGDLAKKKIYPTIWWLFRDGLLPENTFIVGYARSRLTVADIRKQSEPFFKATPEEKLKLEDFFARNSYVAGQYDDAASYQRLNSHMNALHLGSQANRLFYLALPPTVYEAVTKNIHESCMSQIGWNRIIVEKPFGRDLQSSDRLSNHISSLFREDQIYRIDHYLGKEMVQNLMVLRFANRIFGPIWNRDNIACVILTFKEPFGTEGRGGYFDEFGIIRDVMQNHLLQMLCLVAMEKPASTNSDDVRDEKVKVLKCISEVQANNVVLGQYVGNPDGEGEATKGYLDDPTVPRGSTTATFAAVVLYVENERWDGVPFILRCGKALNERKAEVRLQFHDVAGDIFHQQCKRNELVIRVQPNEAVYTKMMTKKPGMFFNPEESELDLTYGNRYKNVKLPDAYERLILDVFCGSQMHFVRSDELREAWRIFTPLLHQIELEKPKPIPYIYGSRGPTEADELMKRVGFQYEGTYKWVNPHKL

Broadly, the IC50 is the concentration at which inhibition is half-maximal. For `C[C@@]12C(=O)Nc3cc(F)c(F)cc3C(=O)N1[C@H]1c3ccccc3OC[C@@H]1[C@@H]2c1ccccc1`, the IC50 is 8.59 µM (active) at Fatty acid synthase [1] and 16.9 µM (active) at Fatty acid synthase [2].
With `O=C(CSc1nc[nH]n1)Nc1ccccc1C(=O)O`, the IC50 on Leucine aminopeptidase is 35.6 µM (active).
By EC50 is commonly meant the concentration needed to bring the measured effect to its halfway point. With `Cc1cccc(-c2nc3ccccc3c(=O)n2NC(=O)/C=C/c2ccc([N+](=O)[O-])cc2)c1`, the EC50 in assay [3] was > 150 µM (inactive); in assay [4], 0.101 µM (active).
Regarding `Cc1ccc(C2=NNC3(CCOC(C)(C)C3)S2)cc1` (stereo not drawn), the EC50 in [3] is > 160 µM (inactive); in assay [5] it was 30.5 µM (active); in assay [6], 14 µM (active); in the assay with H4, 19.1 µM (active); in [4], > 38 µM (not active).
For the compound `O=C(/C=C/c1cccc([N+](=O)[O-])c1)NCCSCc1c(Cl)cccc1Cl`, the concentration for half-maximal inhibition (IC50) on Fatty acid synthase [1] is 3.92 µM (active); on Fatty acid synthase [2] it was 4.12 µM (active).
`OCCNc1nc(O)nc(O)c1/N=C/c1ccccc1`: the half-maximal inhibitory concentration (IC50) in assay [7] is 14.2 µM (active).
For the compound `CCCCN(C(=O)/C=C/c1ccco1)c1c(N)n(Cc2ccccc2)c(=O)[nH]c1=O`, the EC50 in assay [3] is > 150 µM (inactive); in assay [4] it was > 38 µM (not active).
Regarding `Cc1ccc(-c2nnc(NC(=O)c3ccc([N+](=O)[O-])o3)o2)c(C)c1`, the EC50 in [3] was > 160 µM (inconclusive); in [4], 1.85 µM (active).
Turning to `CC(C)Sc1nnc(NC(=O)c2ccc3c(c2)OCO3)s1`, the IC50 in assay [7] is 38.9 µM (inactive).
For `CCOC(=O)CSc1nnc(-c2ccco2)n1-c1ccc(C)cc1`, at Leucine aminopeptidase, the IC50 was 37 µM (active).
For `O=c1oc(-c2ccccc2Br)nc2ccccc12`, the values for the IC50 at Fatty acid synthase [1] and on Fatty acid synthase [2] were 13 µM (active) and 16.1 µM (active), respectively.
Consider `Brc1ccc(-c2cnc(-c3cccs3)o2)cc1`, for which the concentration for half-maximal inhibition (IC50) at Protein skinhead-1 was 19.7 µM (active); in assay [8] it was 27.6 µM (active); in assay [9], 15 µM (active); at Caspase-3 it was 29.5 µM (active); in assay [10] it was 5.42 µM (active).
For `Cc1c(O)c(S(=O)(=O)c2ccccc2)c(=O)n(-c2ccccc2)c1-c1ccccc1`, on Leucine aminopeptidase, the IC50 was 9.98 µM (active).
Regarding `O=C(Cc1ccccc1)N/N=C/c1ccccc1Cl`, the half-maximal effective concentration (EC50) is > 150 µM (inconclusive) in assay [3] and > 38 µM (not active) in assay [4].
Take `Cc1ccc(SC(C)C(=O)Nc2ccc(S(=O)(=O)N3CCOCC3)cc2)cc1` (stereo not drawn): on Leucine aminopeptidase, the IC50 was 21.2 µM (active).
The term AC50 denotes the concentration giving half of the maximal activity seen. With `CC1Cc2ccccc2N1Cc1cccc(S(=O)(=O)N(C)C)c1` (stereo not drawn), the AC50 in assay [11] was 33 µM (active); in assay [12], 23.9 µM (active).
Regarding `COc1ccc(CCNC(=O)c2ccc3c(SCC(=O)O)c4c(nc3c2)CCCC4)cc1OC`, at Leucine aminopeptidase, the IC50 is 23.3 µM (active).

These data come from ChEMBL document CHEMBL1201862, “PubChem BioAssay data set” (2004).
